# Measured values: patent publication US20030086920A1, “Use of des-Aspartate-angiotensin I as an agent for the treatment and prevention of glomerulosclerosis and renal failure” (priority 2000, published 2003)
# Legend:
# [1] = system: ablation nephropathic rats; experiment: Proteinuria in 5/6 nephrectomized (ablation nephropathic) rats; format: in vivo, Sprague Dawley rats; conditions: for 24-hour urinary excretion of protein: Weeks 9-16 post 5/6 nephrectomy, 762 nmoles/kg/day oral for 8 weeks, mean ± SEM
# Procedure: Five-sixths nephrectomy was carried out as described by Morrison (11). Briefly, each animal was anaesthetized with 7% w/v chloral hydrate (0.4 g/kg, i.p.). An incision was made in the ventral abdominal wall to access the kidneys. Right nephrectomy was performed and the cranial and caudal third of the left kidney were cut off. Tissue adhesive (Histoccryl, B. Braun) was used to seal the cut ends of the left kidney and prevent bleeding. In this way 5/6 of the renal parenchyma was removed. This model results in focal and segmental glomerulosclerosis, resembling renal lesions in humans like oligomeganephronia, membranous nephropathy, minimal change nephritis, proliferative glomerulonephritis, analgesic nephropathy, diabetes mellitus, unilateral nephrectomy, cortical necrosis, and unilateral renal agenesis (9).
# Following the operation, each animal was placed in a metabolic cage for 24 hours once a week for a duration of 8 weeks. The 24-hour urine output and the concentration of protein in the urine were measured. After the 8th week, the animals were randomly divided into two groups (8 animals per group). Animals in one of the group (the treatment group) were orally administered 762 nmoles/kg/day of des-Asp-angiotensin I dissolved in 0.5 ml of saline via a 1-ml syringe with a blunted needle for a period of 8 weeks. The dose of 762 nmoles/kg/day was calculated based on the maximum effective oral anti-cardiac hypertrophic dose (250 nmole per rat of average weight of 328 g) in the original parent patent. Animals in the other group (the control group) were similarly administered with 0.5 ml of saline. Weekly measurement of 24-hour urine output and the concentration of protein in the urine in these animals were carried out for another 8 weeks. The protocol was designed based on our preliminary observation that urinary excretion of protein in the 5/6 nephrectomized rats commenced to increase above the normal value in 7th to 8th week post nephrectomy. A repeat of the experiment with 12 nephrectomized rats per group was carried out.
# Data were expressed as mean±SEM. […]
# cardiac hypertrophy = conditions: rat of average weight of 328 g, from the original parent patent; cited from earlier work
substance,measurement,setting,value
des-Aspartate angiotensin I [des-Asp-angiotensin I],24-hour urinary excretion of protein,"[1]; 8 rats, first experiment, saline control 37.2 ± 2.3, p = 0.024",*28.7 ± 2.5 mg
same,24-hour urinary excretion of protein,"[1]; 12 rats, repeat experiment, saline control 51.7 ± 4.7, p = 0.048",*39.6 ± 3.3 mg
same,Anti-proteinuric action (progressive development of proteinuria),"[1]; ablation nephropathic rats, oral dose of 762 nmoles/kg/day",effective agent in attenuating the progressive development of proteinuria
same,Maximum effective oral anti-cardiac hypertrophic dose,cardiac hypertrophy,250 nmole per rat
